Test results reported in ChEMBL document CHEMBL4483862, “Open-source discovery of chemical leads for next-generation chemoprotective antimalarials” (2018).

Tested on: Plasmodium berghei
Assay: Luciferase/luciferin-expressing antifolate-resistant parasites were used to infect a culture of HepG2 cells that were pre-incubated with compounds. Infected hepatocytes emit light due to the luciferase reaction. Assay results are presented as the percent inhibition of light emission compared to control. […]
Format: functional
Conditions: sporozoite; for IC90: read-out: LUCIFERASE INFECTION ASSAY - IC90

| Structure (SMILES) | IC90 | also measured |
| --- | --- | --- |
| NS(=O)(=O)c1ccc(CCNc2nn3c(-c4ccc(F)c(Cl)c4)cnc3s2)cc1 | > 7.3 µM | IC50 (FFLUC_HILL_SLOPE 96, FFLUC_R_SQUARED 0.344, HEPG2TOX_HILL_SLOPE 2.59, HEPG2TOX_R_SQUARED 0.44, read-out: LUCIFERASE INFECTION ASSAY - IC50): > 7.3 µM |
| O=[N+]([O-])c1cnc(Sc2nc3cc(Cl)ccc3s2)s1 | > 10 µM | IC50 (FFLUC_HILL_SLOPE 97.7, FFLUC_R_SQUARED 0.0466, read-out: LUCIFERASE INFECTION ASSAY - IC50): > 10 µM |
| O=C(NC(=S)NNc1ncc(C(F)(F)F)cc1Cl)c1ccccc1 | 0.377 µM | IC50 (FFLUC_HILL_SLOPE 148, FFLUC_R_SQUARED 0.758, HEPG2TOX_HILL_SLOPE 0.501, HEPG2TOX_R_SQUARED 0.887, PBLUC_HILL_SLOPE 13.6, PBLUC_R_SQUARED 0.819, read-out: LUCIFERASE INFECTION ASSAY - IC50): 0.321 µM |
| COc1cc(Cl)c(C)cc1NC(=O)Cn1c(=O)c(=O)n(Cc2ccccc2)c2ccc(Cl)cc21 | > 10 µM | IC50 (FFLUC_HILL_SLOPE 92.5, FFLUC_R_SQUARED 0.216, PBLUC_HILL_SLOPE 2.05, PBLUC_R_SQUARED 0.328, read-out: LUCIFERASE INFECTION ASSAY - IC50): 4.54 µM |
| O=C(/C=C/c1ccc(-n2cncn2)c(F)c1)c1cccc(OC(F)F)c1 | 5.45 µM | IC50 (FFLUC_HILL_SLOPE 115, FFLUC_R_SQUARED 0.0591, PBLUC_HILL_SLOPE 174, PBLUC_R_SQUARED 0.383, read-out: LUCIFERASE INFECTION ASSAY - IC50): 5.39 µM |
| CCc1nnc(SCc2cc(=O)n3c(C)csc3n2)[nH]1 | > 10 µM | IC50 (FFLUC_HILL_SLOPE 120, FFLUC_R_SQUARED 0.18, read-out: LUCIFERASE INFECTION ASSAY - IC50): > 10 µM |
| CC(C)(C)c1ccc(CSc2nnc(-c3ccco3)n2-c2ccc(OCc3ccccc3)cc2)cc1 | > 6.66 µM | IC50 (FFLUC_HILL_SLOPE 93.6, FFLUC_R_SQUARED 0.0881, read-out: LUCIFERASE INFECTION ASSAY - IC50): > 6.66 µM |
| O=[N+]([O-])c1cnc(Sc2ccc(C(F)(F)F)cn2)s1 | 10.5 µM | IC50 (FFLUC_HILL_SLOPE 78.7, FFLUC_R_SQUARED 0.547, HEPG2TOX_HILL_SLOPE 11.7, HEPG2TOX_R_SQUARED 0.958, PBLUC_HILL_SLOPE 15.1, PBLUC_R_SQUARED 0.404, read-out: LUCIFERASE INFECTION ASSAY - IC50): 9.04 µM |
| Cc1ccc(N2C(=O)C=CC2=O)cc1Cl | > 14.9 µM | IC50 (FFLUC_HILL_SLOPE 79.3, FFLUC_R_SQUARED 0.497, PBLUC_HILL_SLOPE 1.92, PBLUC_R_SQUARED 0.35, read-out: LUCIFERASE INFECTION ASSAY - IC50): 6.38 µM |
| Cn1ccnc1Sc1c[nH]c(=S)nc1-c1ccc(Cl)cc1 | 9.04 µM | IC50 (FFLUC_HILL_SLOPE 122, FFLUC_R_SQUARED 0.312, PBLUC_HILL_SLOPE 4.61, PBLUC_R_SQUARED 0.38, read-out: LUCIFERASE INFECTION ASSAY - IC50): 5.61 µM |
| O=C1C=CC(=O)N1c1cccc(Cl)c1Cl | > 13.6 µM | IC50 (FFLUC_HILL_SLOPE 90.3, FFLUC_R_SQUARED 0.368, read-out: LUCIFERASE INFECTION ASSAY - IC50): > 13.6 µM |
| Cc1nn(-c2ccccc2)c(C)c1-c1nc(-c2ccccc2)no1 | 5.81 µM | IC50 (FFLUC_HILL_SLOPE 123, FFLUC_R_SQUARED 0.665, PBLUC_HILL_SLOPE 0.902, PBLUC_R_SQUARED 0.808, read-out: LUCIFERASE INFECTION ASSAY - IC50): 0.508 µM |
| Cc1nc(SCc2cccc(C(F)(F)F)c2)c2c(-c3cccs3)csc2n1 | > 10 µM | IC50 (FFLUC_HILL_SLOPE 83.3, FFLUC_R_SQUARED 0.372, read-out: LUCIFERASE INFECTION ASSAY - IC50): > 10 µM |
| CCOc1cc2c(cc1CNC(=O)Cn1cnc3c(cnn3-c3ccccc3)c1=O)OC(C)C2 (stereo not given) | > 10 µM | IC50 (FFLUC_HILL_SLOPE 95.3, FFLUC_R_SQUARED 0.504, HEPG2TOX_HILL_SLOPE 1.9, HEPG2TOX_R_SQUARED 0.749, read-out: LUCIFERASE INFECTION ASSAY - IC50): > 10 µM |
| CCOC(=O)c1c(-c2ccc(F)cc2)csc1NC(=O)CSc1nc2c(c(CC)c1C#N)C(=O)CC(C)(C)C2 | > 10 µM | IC50 (FFLUC_HILL_SLOPE 86.7, FFLUC_R_SQUARED 0.56, PBLUC_HILL_SLOPE 13.6, PBLUC_R_SQUARED 0.125, read-out: LUCIFERASE INFECTION ASSAY - IC50): 8.71 µM |
| CCOC(=O)/C=c1\s/c(=C\c2ccc(N3CCCCC3)c([N+](=O)[O-])c2)c(=O)n1CC(=O)N1CCC(C)CC1 | > 10 µM | IC50 (FFLUC_HILL_SLOPE 86.1, FFLUC_R_SQUARED 0.469, PBLUC_HILL_SLOPE 14.4, PBLUC_R_SQUARED 0.0813, read-out: LUCIFERASE INFECTION ASSAY - IC50): > 10 µM |
| Cc1ccc2nc(NC(=O)c3ccc(C#N)cc3)c(C(=O)NC3CCCC3)n2c1 | 0.336 µM | IC50 (FFLUC_HILL_SLOPE 93.7, FFLUC_R_SQUARED 0.282, HEPG2TOX_HILL_SLOPE 0.845, HEPG2TOX_R_SQUARED 0.968, PBLUC_HILL_SLOPE 14.4, PBLUC_R_SQUARED 0.874, read-out: LUCIFERASE INFECTION ASSAY - IC50): 0.288 µM |
| COc1ccc(C2=C(NCCc3ccccc3)c3ccccc3C2=O)cc1 | 0.404 µM | IC50 (FFLUC_HILL_SLOPE 105, FFLUC_R_SQUARED 0.774, PBLUC_HILL_SLOPE 1.53, PBLUC_R_SQUARED 0.754, read-out: LUCIFERASE INFECTION ASSAY - IC50): 0.096 µM |
| Cc1occc1C(=O)NN=CC1C(=O)N(Cc2ccccc2)C(=O)c2ccccc21 (stereo not given) | 7.7 µM | IC50 (FFLUC_HILL_SLOPE 77.8, FFLUC_R_SQUARED 0.432, HEPG2TOX_HILL_SLOPE 1.95, HEPG2TOX_R_SQUARED 0.861, PBLUC_HILL_SLOPE 6.12, PBLUC_R_SQUARED 0.278, read-out: LUCIFERASE INFECTION ASSAY - IC50): 5.38 µM |
| O=C(COC(=O)c1ccccc1NCCO)NC1c2ccccc2-c2ccccc21 | 4.07 µM | IC50 (FFLUC_HILL_SLOPE 129, FFLUC_R_SQUARED 0.809, HEPG2TOX_HILL_SLOPE 1.96, HEPG2TOX_R_SQUARED 0.833, PBLUC_HILL_SLOPE 15.2, PBLUC_R_SQUARED 0.28, read-out: LUCIFERASE INFECTION ASSAY - IC50): 3.52 µM |
| O=c1[nH]nc(Sc2ncc([N+](=O)[O-])s2)n1-c1ccccc1C(F)(F)F | > 8.48 µM | IC50 (FFLUC_HILL_SLOPE 106, FFLUC_R_SQUARED 0.375, read-out: LUCIFERASE INFECTION ASSAY - IC50): > 8.48 µM |
| CN(C)c1ccc(/C=c2\s/c(=C\C#N)n(CC(=O)c3ccccc3)c2=O)cc1 | > 10 µM | IC50 (FFLUC_HILL_SLOPE 120, FFLUC_R_SQUARED 0.489, HEPG2TOX_HILL_SLOPE 0.599, HEPG2TOX_R_SQUARED 0.179, PBLUC_HILL_SLOPE 1.11, PBLUC_R_SQUARED 0.152, read-out: LUCIFERASE INFECTION ASSAY - IC50): 5.8 µM |
| COc1cc(C2NCC(c3ccccc3Cl)c3c2[nH]c2ccccc32)ccc1OCc1cccc(C(F)(F)F)c1 (stereo not given) | > 10 µM | IC50 (FFLUC_HILL_SLOPE 97, FFLUC_R_SQUARED 0.0371, HEPG2TOX_HILL_SLOPE 1.2, HEPG2TOX_R_SQUARED 0.293, PBLUC_HILL_SLOPE 8.25, PBLUC_R_SQUARED 0.22, read-out: LUCIFERASE INFECTION ASSAY - IC50): 8.46 µM |
| CCCNC(=O)c1c(NC(=O)c2cccc(Cl)c2)nc2ccccn12 | 1.11 µM | IC50 (FFLUC_HILL_SLOPE 126, FFLUC_R_SQUARED 0.738, HEPG2TOX_HILL_SLOPE 0.804, HEPG2TOX_R_SQUARED 0.952, PBLUC_HILL_SLOPE 15.4, PBLUC_R_SQUARED 0.753, read-out: LUCIFERASE INFECTION ASSAY - IC50): 0.96 µM |
| CCCCNC(=O)c1c(NC(=O)c2cccc(C)c2)nc2ccc(C)cn12 | 3.17 µM | IC50 (FFLUC_HILL_SLOPE 134, FFLUC_R_SQUARED 0.564, HEPG2TOX_HILL_SLOPE 2.72, HEPG2TOX_R_SQUARED 0.791, PBLUC_HILL_SLOPE 3.36, PBLUC_R_SQUARED 0.556, read-out: LUCIFERASE INFECTION ASSAY - IC50): 1.65 µM |
| O=S(=O)(c1ccc(-c2cc(-c3ccccc3Cl)c3cc(Cl)ccc3n2)cc1)N1CCCCC1 | > 10 µM | IC50 (FFLUC_HILL_SLOPE 79.3, FFLUC_R_SQUARED 0.555, read-out: LUCIFERASE INFECTION ASSAY - IC50): > 10 µM |
| O=C(NNC(=O)c1csc(COc2ccccc2Cl)n1)c1ccc(Cl)cc1 | 7.14 µM | IC50 (FFLUC_HILL_SLOPE 94.2, FFLUC_R_SQUARED 0.775, HEPG2TOX_HILL_SLOPE 11.4, HEPG2TOX_R_SQUARED 0.575, PBLUC_HILL_SLOPE 4.49, PBLUC_R_SQUARED 0.337, read-out: LUCIFERASE INFECTION ASSAY - IC50): 4.37 µM |
| O=C(Nc1ccc(OC(F)(F)F)cc1)Nc1ccccc1Sc1ncc([N+](=O)[O-])cc1C(F)(F)F | > 6.37 µM | IC50 (FFLUC_HILL_SLOPE 90.5, FFLUC_R_SQUARED 0.394, read-out: LUCIFERASE INFECTION ASSAY - IC50): > 6.37 µM |
| O=C(c1cc(F)cc(F)c1)N1[C@@H]2CC[C@@H](C2)[C@H]1c1nc2c(OCCC3CCCCC3)cccc2[nH]1 | > 10 µM | IC50 (FFLUC_HILL_SLOPE 146, FFLUC_R_SQUARED 0.488, HEPG2TOX_HILL_SLOPE 10.5, HEPG2TOX_R_SQUARED 0.576, PBLUC_HILL_SLOPE 12.2, PBLUC_R_SQUARED 0.352, read-out: LUCIFERASE INFECTION ASSAY - IC50): 9.64 µM |
| N#Cc1c(N2CCCCCC2)nc(N)c2c(N)nc3c(c12)CC(=O)N3c1ccc(F)cc1 | 1.19 µM | IC50 (FFLUC_HILL_SLOPE 141, FFLUC_R_SQUARED 0.168, PBLUC_HILL_SLOPE 30.3, PBLUC_R_SQUARED 0.605, read-out: LUCIFERASE INFECTION ASSAY - IC50): 1.1 µM |
